Data from ChEMBL document CHEMBL3997792, “Identification of the First Selective Activin Receptor-Like Kinase 1 Inhibitor, a Reversible Version of L-783277” (J Med Chem, 2017).
The source made the active and inactive calls. The rule behind the calls is not given here.

Tests used:
TGF-beta receptor type-1 = biological target: T1, TGF-beta receptor type-1 (Mus musculus, UniProt Q64729); assay: Inhibition of ALK5 in mouse C2C12 cells assessed as decrease in TGFbeta1-induced Smad1/5 phosphorylation at 0.1 uM by Western blot method; assay type: cell-based
T1 sequence (Q64729 whole entry): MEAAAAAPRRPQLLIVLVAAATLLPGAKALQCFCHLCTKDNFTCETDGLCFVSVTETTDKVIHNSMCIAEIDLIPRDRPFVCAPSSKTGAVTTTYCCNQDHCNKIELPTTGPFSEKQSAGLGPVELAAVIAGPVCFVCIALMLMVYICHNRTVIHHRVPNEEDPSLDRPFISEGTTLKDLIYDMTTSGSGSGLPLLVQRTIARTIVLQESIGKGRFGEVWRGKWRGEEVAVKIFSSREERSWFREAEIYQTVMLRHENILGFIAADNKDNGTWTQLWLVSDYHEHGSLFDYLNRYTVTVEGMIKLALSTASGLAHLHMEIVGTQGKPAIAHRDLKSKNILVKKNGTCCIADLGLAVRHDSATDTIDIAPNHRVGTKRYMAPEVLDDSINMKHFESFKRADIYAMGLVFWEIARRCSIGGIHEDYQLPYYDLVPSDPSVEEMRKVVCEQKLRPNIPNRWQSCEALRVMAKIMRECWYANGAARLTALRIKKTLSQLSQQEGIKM

[1] = biological target: T2, Activin receptor type-1-like (Homo sapiens, UniProt P37023); assay: Inhibition of human ALK1 at 10 uM using casein as substrate in presence of [gamma-33P]-ATP by scintillation counting method relative to control
[2] = biological target: T3, Activin receptor type-1-like (Mus musculus) (UniProt Q61288); assay: Inhibition of BMP9-stimulated ALK1 in mouse C2C12 cells assessed as reduction in Smad1/5 phosphorylation at 10 uM pretreated for 2 hrs followed by BMP9-stimulation after 30 mins by western blot analysis relative to control; assay type: cell-based
T3 sequence (whole entry): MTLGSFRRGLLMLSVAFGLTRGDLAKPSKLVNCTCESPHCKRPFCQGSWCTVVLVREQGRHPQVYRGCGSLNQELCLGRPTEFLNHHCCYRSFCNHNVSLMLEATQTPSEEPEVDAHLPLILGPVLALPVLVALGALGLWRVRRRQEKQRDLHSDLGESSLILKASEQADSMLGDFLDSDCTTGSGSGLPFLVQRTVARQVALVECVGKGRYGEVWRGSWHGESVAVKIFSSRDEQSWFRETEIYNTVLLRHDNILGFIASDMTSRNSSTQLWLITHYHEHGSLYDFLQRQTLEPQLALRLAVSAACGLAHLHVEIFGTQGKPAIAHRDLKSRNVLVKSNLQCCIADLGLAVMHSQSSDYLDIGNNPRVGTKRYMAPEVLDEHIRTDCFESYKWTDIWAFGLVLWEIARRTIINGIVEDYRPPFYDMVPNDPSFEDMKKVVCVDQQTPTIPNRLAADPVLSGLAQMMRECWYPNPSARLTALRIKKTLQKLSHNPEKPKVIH

[3] = biological target: T2, Activin receptor type-1-like; assay: Inhibition of human ALK1 using casein as substrate in presence of [gamma-33P]-ATP by scintillation counting method

T2 sequence (P37023 whole entry): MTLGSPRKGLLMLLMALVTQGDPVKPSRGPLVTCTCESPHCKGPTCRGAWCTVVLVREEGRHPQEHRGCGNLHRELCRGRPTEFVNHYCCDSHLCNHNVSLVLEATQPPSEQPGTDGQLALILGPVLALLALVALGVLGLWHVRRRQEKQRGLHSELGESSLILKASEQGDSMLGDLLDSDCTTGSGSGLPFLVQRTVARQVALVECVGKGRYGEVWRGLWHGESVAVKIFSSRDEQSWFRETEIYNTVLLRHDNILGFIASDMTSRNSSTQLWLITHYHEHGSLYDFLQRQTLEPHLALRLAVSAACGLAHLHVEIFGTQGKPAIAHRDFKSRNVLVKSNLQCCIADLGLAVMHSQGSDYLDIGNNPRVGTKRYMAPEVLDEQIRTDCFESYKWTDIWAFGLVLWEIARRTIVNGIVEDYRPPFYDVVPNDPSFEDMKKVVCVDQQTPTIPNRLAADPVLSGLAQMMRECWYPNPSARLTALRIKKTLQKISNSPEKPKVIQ

inhibition (INH) (TGF-beta receptor type-1)	inhibition [1] [%]	inhibition [2]	IC50 [3] [nM]	Compound
Active				c1ccc2c(-c3cnn4cc(-c5ccc(N6CCNCC6)cc5)cnc34)ccnc2c1
	< 40	inactive		COc1cc(O)c2c(c1)CCC[C@H](O)[C@H](O)C(=O)NCC[C@H](C)OC2=O
		70 to 80%	770	COc1cc(O)c2c(c1)CCC[C@H](O)[C@H](O)[C@@H](O)CCC[C@H](C)OC2=O
